Consider six molecules from the NIST ThermoML archive (doi:10.1016/j.jct.2007.10.007).

What is called mass density is mass per unit of volume. The speed of sound is how fast a sound wave travels through the sample.

The nature of this data set: mn = molality of the nth substance listed, in mol/kg. The note with it: 298.15 K, 101 kPa, Liquid.

Numbers after ± are expanded uncertainties.

As to `CCCCn1cc[n+](C)c1.[Cl-]` [1-butyl-3-methylimidazolium chloride] + O, the mass density worked out at 997.72 ± 0.51 kg/m3 (m1 = 0.05281); 998.29 ± 0.51 kg/m3 (m1 = 0.09783); 998.85 ± 0.51 kg/m3 (m1 = 0.1433); 999.56 ± 0.5 kg/m3 (m1 = 0.1998); 1000.15 ± 0.5 kg/m3 (m1 = 0.2471); 1000.69 ± 0.51 kg/m3 (m1 = 0.2899). The mass density runs as follows: (m1 = 0.3173) 1001.04 ± 0.51 kg/m3; (m1 = 0.4052) 1002.14 ± 0.52 kg/m3; (m1 = 0.422) 1002.35 ± 0.52 kg/m3; (m1 = 0.4995) 1003.31 ± 0.52 kg/m3. The speed of sound (m1 = 0.05281) is reported as 1504.8 ± 1.5 m/s; the speed of sound (m1 = 0.09783) was determined as 1510.5 ± 1.5 m/s; the speed of sound (m1 = 0.1433) was 1516.7 ± 1.5 m/s; the speed of sound (m1 = 0.1998) was 1524.4 ± 1.5 m/s; the speed of sound (m1 = 0.2471) stood at 1530.2 ± 1.5 m/s; the speed of sound (m1 = 0.2899) came out at 1535.5 ± 1.5 m/s. The speed of sound runs as follows: (m1 = 0.3173) 1539.1 ± 1.5 m/s; (m1 = 0.4052) 1549.9 ± 1.5 m/s; (m1 = 0.422) 1551.9 ± 1.5 m/s; (m1 = 0.4995) 1562.2 ± 1.5 m/s.
For the molecule `Cl.Cn1ccnc1` [1-methylimidazolium chloride] + O, the mass density is reported as 998.29 ± 0.51 kg/m3 (m1 = 0.05234); 999.3 ± 0.51 kg/m3 (m1 = 0.09548); 1000.49 ± 0.5 kg/m3 (m1 = 0.147); 1001.69 ± 0.51 kg/m3 (m1 = 0.1998); 1002.77 ± 0.52 kg/m3 (m1 = 0.2472); 1003.97 ± 0.53 kg/m3 (m1 = 0.3011). For the same molecule, the mass density is, setting by setting: (m1 = 0.3555) 1005.18 ± 0.54 kg/m3; (m1 = 0.3994) 1006.13 ± 0.54 kg/m3; (m1 = 0.4551) 1007.35 ± 0.55 kg/m3; (m1 = 0.5139) 1008.62 ± 0.56 kg/m3. Moreover, the speed of sound by setting is: (m1 = 0.05234) 1501.6 ± 1.5 m/s; (m1 = 0.09548) 1504.7 ± 1.5 m/s; (m1 = 0.147) 1508.5 ± 1.5 m/s; (m1 = 0.1998) 1512.5 ± 1.5 m/s; (m1 = 0.2472) 1516 ± 1.5 m/s; (m1 = 0.3011) 1519.9 ± 1.5 m/s. In addition, the speed of sound runs as follows: (m1 = 0.3555) 1523.9 ± 1.5 m/s; (m1 = 0.3994) 1526.3 ± 1.5 m/s; (m1 = 0.4551) 1530.5 ± 1.5 m/s; (m1 = 0.5139) 1534.6 ± 1.5 m/s.
As for `Cl.c1c[nH]cn1` [imidazolium chloride] + O, the mass density turned out to be 998.24 ± 0.51 kg/m3 (m1 = 0.04296); 999.89 ± 0.5 kg/m3 (m1 = 0.1027); 1001.26 ± 0.51 kg/m3 (m1 = 0.153); 1002.47 ± 0.52 kg/m3 (m1 = 0.1976); 1003.72 ± 0.53 kg/m3 (m1 = 0.2417); 1004.65 ± 0.53 kg/m3 (m1 = 0.2914). Further, the mass density reads like this: (m1 = 0.34) 1006.45 ± 0.55 kg/m3; (m1 = 0.3893) 1007.62 ± 0.55 kg/m3; (m1 = 0.4495) 1008.96 ± 0.56 kg/m3; (m1 = 0.5003) 1010.31 ± 0.57 kg/m3. Also, the speed of sound came out at 1500.1 ± 1.5 m/s (m1 = 0.04296); 1503.8 ± 1.5 m/s (m1 = 0.1027); 1507 ± 1.5 m/s (m1 = 0.153); 1509.7 ± 1.5 m/s (m1 = 0.1976); 1512.4 ± 1.5 m/s (m1 = 0.2417); 1515.8 ± 1.5 m/s (m1 = 0.2914). For the same molecule, the speed of sound runs as follows: (m1 = 0.34) 1517.9 ± 1.5 m/s; (m1 = 0.3893) 1521.2 ± 1.5 m/s; (m1 = 0.4495) 1525.2 ± 1.5 m/s; (m1 = 0.5003) 1527.9 ± 1.5 m/s.
In the case of `O` [water] + CCCCn1cc[n+](C)c1.[Cl-], under “m2 = 0”, the speed of sound turned out to be 1497.6 ± 1.5 m/s.
Turning to `O` [water] + Cl.Cn1ccnc1, the speed of sound (m2 = 0) amounted to 1497.6 ± 1.5 m/s.
Same read-out and setting: the value for `O` [water] + Cl.c1c[nH]cn1 was 1497.6 ± 1.5 m/s.
